Data taken from article PMC3602205 (Chemico-biological interactions, 2013).
Changes are numbered by the printed parent chain.

Experiments:
[1] = molecular target: T1, Ct-FDH (carboxy-terminal ALDH domain of 10-formyltetrahydrofolate dehydrogenase, Aldh1l1) (Rattus norvegicus, UniProt P28037, C707S); experiment: quenching of tryptophan fluorescence; assay type: binding
T1 sequence (P28037 400-902 C707S): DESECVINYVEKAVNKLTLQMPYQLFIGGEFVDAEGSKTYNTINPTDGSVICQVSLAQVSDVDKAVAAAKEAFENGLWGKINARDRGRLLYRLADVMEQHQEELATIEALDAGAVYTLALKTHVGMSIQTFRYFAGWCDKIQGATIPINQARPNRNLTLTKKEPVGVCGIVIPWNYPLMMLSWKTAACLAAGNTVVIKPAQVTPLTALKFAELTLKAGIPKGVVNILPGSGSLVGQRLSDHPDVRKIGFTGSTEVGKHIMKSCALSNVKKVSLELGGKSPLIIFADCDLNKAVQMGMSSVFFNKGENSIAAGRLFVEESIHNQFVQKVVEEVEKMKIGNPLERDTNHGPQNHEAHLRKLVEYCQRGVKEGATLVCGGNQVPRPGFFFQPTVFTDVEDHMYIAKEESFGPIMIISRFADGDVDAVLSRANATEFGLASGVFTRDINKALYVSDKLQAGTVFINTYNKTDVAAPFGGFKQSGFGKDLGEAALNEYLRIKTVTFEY

[2] = molecular target: T2, Ct-FDH (carboxy-terminal ALDH domain of 10-formyltetrahydrofolate dehydrogenase, Aldh1l1) (Rattus norvegicus, UniProt P28037); experiment: quenching of tryptophan fluorescence; assay type: binding
T2 sequence (P28037 400-902): T1 sequence (P28037 400-902 C707S) with S308C

NC(=O)c1ccc[n+]([C@@H]2O[C@H](COP(=O)(O)OP(=O)(O)OC[C@H]3O[C@@H](n4cnc5c(N)ncnc54)[C@H](OP(=O)(O)O)[C@@H]3O)[C@@H](O)[C@H]2O)c1 [NADP^+]
Kd [1]: 11 ± 1.5 µM

NC(=S)c1ccc[n+]([C@@H]2O[C@H](COP(=O)(O)OP(=O)(O)OC[C@H]3O[C@@H](n4cnc5c(N)ncnc54)[C@H](OP(=O)(O)O)[C@@H]3O)[C@@H](O)[C@H]2O)c1 [thio-NADP^+]
Kd [2]: 17 ± 0.8 µM
